Patent publication US8193189B2, “Quinoxaline derivatives as tyrosine kinase activity inhibitors” (Novartis AG, priority 2007, dated 2012)

How the values were obtained:
GST-TYK2(888-1187) = molecular target: T1, GST-TYK2(888-1187) (Homo sapiens, UniProt P29597); assay: EPK JAK-family kinases profiling assay (Caliper mobility shift), TYK2; type: biochemical; conditions: ATP 30 μM, 40 nM kinase
T1 construct: GST-TYK2(888-1187); made in house
T1 sequence (P29597 888-1187): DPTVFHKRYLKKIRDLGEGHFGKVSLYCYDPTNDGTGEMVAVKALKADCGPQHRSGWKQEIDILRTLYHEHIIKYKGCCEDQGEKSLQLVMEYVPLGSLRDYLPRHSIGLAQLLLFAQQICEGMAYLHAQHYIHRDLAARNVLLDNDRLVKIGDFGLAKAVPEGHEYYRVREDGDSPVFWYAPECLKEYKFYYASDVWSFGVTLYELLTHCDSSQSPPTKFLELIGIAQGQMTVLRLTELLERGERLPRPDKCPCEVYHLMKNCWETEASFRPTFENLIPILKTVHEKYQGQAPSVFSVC
Procedure, shortened: (§1)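 Turnover was read as substrate/product ratio after mobility-shift capillary-like separation of each reaction, run for 60 min at 30 °C with GST-tagged kinase domain, labelled peptide and ATP, and terminated with EDTA stop buffer.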

[1] = tested on: JAK/STAT pathway (JAK1/JAK2-dependent nuclear translocation of STAT1-GFP); assay: Inhibition of the JAK/STAT pathway: IFN-γ stimulated nuclear translocation of STAT1-GFP in HT1080 fibrosarcoma cells; type: cell-based; conditions: Homo sapiens, HT-1080; HT1080 STAT1-GFP cells, 100 ng/ml IFN-γ 2 hours, compound added 30 min before; read-out: STAT1translo IC50
Procedure, shortened: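 HT1080 cells stably expressing STAT1-GFP, compounds added 30 min before IFN-γ stimulation at final 10 μM down to 0.003 μM (0.1% DMSO). Nuclear-cytoplasmic GFP intensity differential quantified by automated imaging with Hoechst nuclear mask, ≥1000 cells per well, averaged per well.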

GST-JAK2(808-1132) = molecular target: T2, GST-JAK2(808-1132) (Homo sapiens, UniProt O60674); assay: EPK JAK-family kinases profiling assay (Caliper mobility shift), JAK2; type: biochemical; conditions: ATP 20 μM, 1.8 nM kinase
T2 construct: GST-JAK2(808-1132); purchased Invitrogen (Carlsbad, USA) #4288
T2 sequence (O60674 808-1132): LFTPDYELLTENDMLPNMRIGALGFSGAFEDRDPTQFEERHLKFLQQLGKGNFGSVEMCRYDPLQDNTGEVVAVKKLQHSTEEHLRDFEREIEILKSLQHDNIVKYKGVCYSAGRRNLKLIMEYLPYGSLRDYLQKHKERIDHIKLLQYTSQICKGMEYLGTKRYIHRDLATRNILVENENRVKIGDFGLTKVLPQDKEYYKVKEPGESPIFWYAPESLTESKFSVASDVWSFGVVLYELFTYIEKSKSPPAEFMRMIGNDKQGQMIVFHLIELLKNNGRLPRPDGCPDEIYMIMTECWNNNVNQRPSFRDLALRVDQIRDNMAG
Procedure, shortened: as §1

GST-JAK1(866-1154) = molecular target: T3, GST-JAK1(866-1154) (Homo sapiens, UniProt P23458); assay: EPK JAK-family kinases profiling assay (Caliper mobility shift), JAK1; type: biochemical; conditions: ATP 40 μM, 50 nM kinase
T3 construct: GST-JAK1(866-1154); made in house
T3 sequence (P23458 866-1154): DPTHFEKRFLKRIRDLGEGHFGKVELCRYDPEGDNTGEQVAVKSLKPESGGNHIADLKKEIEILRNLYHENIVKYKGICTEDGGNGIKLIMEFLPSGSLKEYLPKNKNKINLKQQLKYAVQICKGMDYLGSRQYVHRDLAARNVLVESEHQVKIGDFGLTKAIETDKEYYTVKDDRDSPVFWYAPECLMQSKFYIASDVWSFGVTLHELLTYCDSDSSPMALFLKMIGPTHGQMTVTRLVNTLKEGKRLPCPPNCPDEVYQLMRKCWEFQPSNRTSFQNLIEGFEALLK
Procedure, shortened: as §1

GST-JAK3(811-1124) = molecular target: T4, GST-JAK3(811-1124) (Homo sapiens, UniProt P52333); assay: EPK JAK-family kinases profiling assay (Caliper mobility shift), JAK3; type: biochemical; conditions: ATP 80 μM, 6 nM kinase
T4 construct: GST-JAK3(811-1124); made in house
T4 sequence (P52333 811-1124): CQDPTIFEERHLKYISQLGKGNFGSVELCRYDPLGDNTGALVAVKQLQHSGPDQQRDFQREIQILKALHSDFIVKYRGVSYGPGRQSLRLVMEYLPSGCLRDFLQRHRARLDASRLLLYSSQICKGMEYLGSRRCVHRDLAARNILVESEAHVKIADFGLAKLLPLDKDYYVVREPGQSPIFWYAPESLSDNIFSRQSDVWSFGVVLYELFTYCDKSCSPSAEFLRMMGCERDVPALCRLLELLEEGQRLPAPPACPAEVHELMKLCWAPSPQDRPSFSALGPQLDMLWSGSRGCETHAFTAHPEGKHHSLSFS
Procedure, shortened: as §1

SMILES	IC50 (GST-TYK2(888-1187)) [µM]	IC50 [1] [µM]	IC50 (GST-JAK2(808-1132)) [µM]	IC50 (GST-JAK1(866-1154)) [µM]	IC50 (GST-JAK3(811-1124)) [µM]
Cc1cc(-c2cnc3cccc(-c4ccc(CN5CCS(=O)(=O)CC5)cc4)c3n2)ccc1C(=O)N1CCOCC1 [Example 63, (4-{8-[4-(1,1-Dioxido-thiomorpholin-4-ylmethyl)-phenyl]-quinoxalin-2-yl}-2-methyl-phenyl)-morpholin-4-yl-methanone]	1.45	0.987	0.0775	0.37	4.3
Cc1cc(-c2cnc3cccc(-c4cc(F)c(CN5CCS(=O)(=O)CC5)c(F)c4)c3n2)ccc1C(=O)N1CCOCC1 [Example 64, (4-{8-[4-(1,1-Dioxido-thiomorpholin-4-ylmethyl)-3,5-difluoro-phenyl]-quinoxalin-2-yl}-2-methyl-phenyl)-morpholin-4-yl-methanone]	0.165	0.0465	0.00495	0.068	0.29
Cc1cc(-c2cnc3cccc(-c4cc(F)c(CN5CCOCC5)c(F)c4)c3n2)ccc1CN1CCOCC1 [Example 71, 8-(3,5-Difluoro-4-morpholin-4-ylmethyl-phenyl)-2-(3-methyl-4-morpholin-4-ylmethyl-phenyl)-quinoxaline]	0.51	2.48	0.0081	0.16	0.79
CN1CCN(c2ccc(-c3cnc4cccc(-c5cc(F)c(CN6CCOCC6)c(F)c5)c4n3)cc2)CC1 [Example 87, 8-(3,5-Difluoro-4-morpholin-4-ylmethyl-phenyl)-2-[4-(4-methyl-piperazin-1-yl)-phenyl]-quinoxaline]	0.72	1.32	0.0335	0.225	3.5
CN1CCN(c2ccc(-c3cnc4cccc(-c5ccc(CC(=O)N6CCOCC6)c(F)c5)c4n3)cc2)CC1 [Example 88, 2-(2-Fluoro-4-{3-[4-(4-methyl-piperazin-1-yl)-phenyl]-quinoxalin-5-yl}-phenyl)-1-morpholin-4-yl-ethanone]	0.113	0.7	0.00655	0.027	0.84
CN1CCN(c2ccc(-c3cnc4cccc(-c5cc(F)c(C(=O)N6CCOCC6)c(F)c5)c4n3)cc2)CC1 [Example 89, (2,6-Difluoro-4-{3-[4-(4-methyl-piperazin-1-yl)-phenyl]-quinoxalin-5-yl}-phenyl)-morpholin-4-yl-methanone]	0.45	1.34	0.034	0.135	3.95
CCN1CCN(Cc2ccc(-c3cnc4cccc(-c5cc(F)c(CN6CCOCC6)c(F)c5)c4n3)cc2C)CC1 [Example 92, 8-(3,5-Difluoro-4-morpholin-4-ylmethyl-phenyl)-2-[4-(4-ethyl-piperazin-1-ylmethyl)-3-methyl-phenyl]-quinoxaline]	3.65	2.14	0.043	1.39	4.9
Cc1cc(-c2cnc3cccc(-c4cc(F)c(CN5CCOCC5)c(F)c4)c3n2)ccc1C(=O)N(C)CCN(C)C [Example 94, 4-[8-(3,5-Difluoro-4-morpholin-4-ylmethyl-phenyl)-quinoxalin-2-yl]-N-(2-dimethylamino-ethyl)-2,N-dimethyl-benzamide]	0.985	1.53	0.027	0.455	2.15
Cc1cc(-c2cnc3cccc(-c4cc(F)c(CN5CCS(=O)(=O)CC5)c(F)c4)c3n2)ccc1C(=O)N(C)CCN(C)C [Example 95, N-(2-Dimethylamino-ethyl)-4-{8-[4-(1,1-dioxido-thiomorpholin-4-ylmethyl)-3,5-difluoro-phenyl]-quinoxalin-2-yl}-2,N-dimethyl-benzamide]	0.04	0.105	< 0.003	0.018	0.0735
O=S1(=O)CCN(Cc2c(F)cc(-c3cccc4ncc(-c5cnn(C6CCNCC6)c5)nc34)cc2F)CC1 [Example 96, 8-[4-(1,1-Dioxido-thiomorpholin-4-ylmethyl)-3,5-difluoro-phenyl]-2-(1-piperidin-4-yl-1H-pyrazol-4-yl)-quinoxaline]	0.0505	0.0355	< 0.003	0.053	0.26

Continued, values first:

IC50 (GST-TYK2(888-1187)) [µM]	IC50 [1] [µM]	IC50 (GST-JAK2(808-1132)) [µM]	IC50 (GST-JAK1(866-1154)) [µM]	IC50 (GST-JAK3(811-1124)) [µM]	SMILES
1.6	1.65	0.00705	0.038	> 10	COCCOc1ccc(-c2cnc3cccc(-c4cc(F)c(CN5CCOCC5)c(F)c4)c3n2)cc1OC [Example 50, 8-(3,5-Difluoro-4-morpholin-4-ylmethyl-phenyl)-2-[3-methoxy-4-(2-methoxy-ethoxy)-phenyl]-quinoxaline]
> 10	2.04	0.0315	0.12	> 10	COCCOc1ccc(-c2cnc3cccc(-c4ccc(CN5CCOCC5)c(F)c4)c3n2)cc1OC [Example 51, 8-(3-Fluoro-4-morpholin-4-ylmethyl-phenyl)-2-[3-methoxy-4-(2-methoxy-ethoxy)-phenyl]-quinoxaline]
0.985	2.95	0.032	0.0975	1.1	COCCOc1ccc(-c2cnc3cccc(-c4ccc(CN5CCS(=O)(=O)CC5)c(C)c4)c3n2)cc1OC [Example 52, 8-[4-(1,1-Dioxido-thiomorpholin-4-ylmethyl)-3-methyl-phenyl]-2-[3-methoxy-4-(2-methoxy-ethoxy)-phenyl]-quinoxaline]
0.0935	0.15	< 0.003	0.012	0.215	COCCOc1ccc(-c2cnc3cccc(-c4cc(F)c(CN5CCS(=O)(=O)CC5)c(F)c4)c3n2)cc1OC [Example 53, 8-[4-(1,1-Dioxido-thiomorpholin-4-ylmethyl)-3,5-difluoro-phenyl]-2-[3-methoxy-4-(2-methoxy-ethoxy)-phenyl]-quinoxaline]
1.35	0.564	0.0305	0.36	1.75	Cc1cc(-c2cnc3cccc(-c4ccc(CN5CCS(=O)(=O)CC5)c(C)c4)c3n2)ccc1CN1CCOCC1 [Example 70, 8-[4-(1,1-Dioxido-thiomorpholin-4-ylmethyl)-3-methyl-phenyl]-2-(3-methyl-4-morpholin-4-ylmethyl-phenyl)-quinoxaline]
0.27	2.08	0.00625	0.0335	0.89	COc1cc(-c2cnc3cccc(-c4ccc(CC(=O)N5CCOCC5)cc4)c3n2)ccc1OCCCN1CCOCC1 [Example 83, 2-(4-{3-[3-Methoxy-4-(3-morpholin-4-yl-propoxy)-phenyl]-quinoxalin-5-yl}-phenyl)-1-morpholin-4-yl-ethanone]
0.27	1.46	0.0055	0.0585	0.975	COc1cc(-c2cnc3cccc(-c4cc(F)c(CN5CCOCC5)c(F)c4)c3n2)ccc1OCCCN1CCOCC1 [Example 84, 8-(3,5-Difluoro-4-morpholin-4-ylmethyl-phenyl)-2-[3-methoxy-4-(3-morpholin-4-yl-propoxy)-phenyl]-quinoxaline]
0.115	0.24	0.00325	0.0125	0.22	COc1cc(-c2cnc3cccc(-c4ccc(CN5CCS(=O)(=O)CC5)c(F)c4)c3n2)ccc1OCCCN1CCOCC1 [Example 85, 8-[4-(1,1-Dioxido-thiomorpholin-4-ylmethyl)-3-fluoro-phenyl]-2-[3-methoxy-4-(3-morpholin-4-yl-propoxy)-phenyl]-quinoxaline]
0.038	0.093	< 0.003	0.00665	0.11	COc1cc(-c2cnc3cccc(-c4cc(F)c(CN5CCS(=O)(=O)CC5)c(F)c4)c3n2)ccc1OCCCN1CCOCC1 [Example 86, 8-[4-(1,1-Dioxido-thiomorpholin-4-ylmethyl)-3,5-difluoro-phenyl]-2-[3-methoxy-4-(3-morpholin-4-yl-propoxy)-phenyl]-quinoxaline]
0.67	3.01	0.022	0.185	1.25	CCN1CCN(Cc2ccc(-c3cnc4cccc(-c5ccc(CN6CCOCC6)c(F)c5)c4n3)cc2C)CC1 [Example 93, 2-[4-(4-Ethyl-piperazin-1-ylmethyl)-3-methyl-phenyl]-8-(3-fluoro-4-morpholin-4-ylmethyl-phenyl)-quinoxaline]
